Laboratory results as given in patent publication US5773236A, “Assay for glutathiane transferase using polyhaloaryl-substituted reporter molecules” (Molecule Probes, Inc., priority 1997, dated 1998).
Counter-ions that a name gives are not always drawn.

Experiments:
CRE BAG 2 cells [1] = assay: Marker gene expression by flow cytometry, CRE BAG 2 (Example 62); assay type: cell-based; settings: 0.2 mM dye, 37° C., 30 minutes
Description: NIH-3T3 and CRE BAG2 cells are maintained as in Example 61. A 10 mM stock solution of (((3 -(2-pentafluorobenzoyl)amino)ethyl)amino)carbonyl)-umbelliferyl β-D-galactopyranoside (Compound 37; Example 37) is prepared in DMF. A 10 mM stock solution of 4-chloromethylcoumarin β-D-galactopyranoside (CMCG; Molecular Probes #D-2921) is prepared in a 1:1 mixture of DMSO and water. NIH-3T3 and CRE BAG2 cells are trypsinized, washed with phosphate buffered saline (PBS), pH 7.2 and resuspended in D-MEM with 10% BCS. To separate 1 mL cell suspensions are added the dye stock solutions to obtain final concentrations of 0.2 mM dye. Incubation is carried out at 37° C. for 30 minutes. Cells are centrifuged to form a pellet, the supernatant is discarded and the cells are washed twice with PBS, pH 7.2 and suspended in the same buffer. Cells are analyzed by flow cytometry using a Becton-Dickinson FACS Vantage flow cytometer. […] However, CRE BAG 2 cells stained with the Compound 37 show fluorescence that is greater than 25-fold that shown by autofluorescent control cells. For the CRE BAG 2 cells stained with CMCG, the fluorescence intensity is only 8-fold greater than that of the autofluorescent control cells.

[2] = tested on: Bovine pulmonary aorta endothelial cells (BPAEC); assay: Retention of fluorescence in fixed cells (Example 66); assay type: cell-based; settings: 3.7% formaldehyde 30 minutes, 0.2% Triton X-100 30 minutes
[3] = tested on: Bovine pulmonary aorta endothelial cells (BPAEC); assay: Glutathione adduct formation and fate of substrate in cultured animal cells, HPLC (Example 66); assay type: cell-based
Description: The solutions are mixed overnight with three volumes of ethyl acetate followed by centrifugation at 15,000×g for 30 min to separate the organic and aqueous layers. HPLC analysis using a Rainin HPLC equipped with a C18, 5 μm, 100 Å, 4.6×250 mm MICROSORB-MV reverse phase column. […] Products are detected by reading the absorbance at 500 nm.
Bovine pulmonary aorta endothelial cells (BPAEC) are removed from flasks by trypsinization and washed into fresh complete growth medium to yield 10^6 cells/mL. […] Other aliquots of the cell suspension are loaded with the same substrates for 1 hour, rinsed into fresh complete medium, then incubated in the absence of substrate for an additional 3 hr at 37° C. to look for retention and efflux of fluorescent products. At the end of each incubation period the cells are removed by centrifugation and the supernate is retained. The cell pellets are resuspended in 1 mL of E-Pure water and subjected to three freeze-thaw cycles (-80° C. to 37° C.).

alkaline phosphatase = assay: Detection of alkaline phosphatase on a membrane blot (Example 63); assay type: biochemical; settings: nitrocellulose
Description: The reagents used are: 1) 5-(pentafluorobenzoylamino)fluorescein diphosphate, tetraammonium salt (Compound 47; Example 47), 10 mM in 0.1M Tris, pH 8.5; 2) fluorescein diphosphate (FDP; Molecular Probes, #F-2999), 10 mM in 0.1M Tris, pH 8.5; 3) BLOCKER Blotto in PBS (Pierce Chemical Company); 4) 0.2M glycine, pH 8.8; 5) 0.05M MgCl2, 6) 0.1M Tris, pH 8.5; 7) wash buffer: 20 mM Tris, 137 mM NaCl, 0.5% TWEEN 20, pH 7.5. Stock solutions of alkaline phosphatase are diluted in 0.1M Tris, pH 8.5 to obtain solutions with the following concentrations: 1 μg/μL, 0.5 μg/μL, 0.25 μg/μL, 0.1 μg/μL, 50 ng/μL, 10 ng/μL, 1 ng/μL and 0 ng/μL. 1 μL of each diluted solution is spotted on a nitrocellulose membrane (1"×1"), pore size 0.45 μM, and allowed to dry overnight at room temperature. Blocking is done by treating both nitrocellulose blots with 2 mL of supernatant liquid from the BLOCKER Blotto solution for 30 minutes at room temperature. The following mixture is prepared: 1.5 mL of 0.2M glycine, pH 8.8+0.4 mL of 0.05M MgCl2 +100 μL of 0.1M Tris, pH 8.5+10 μL of 10 mM substrate stock solution (either PFB-FDP or FDP). Blotto supernatant on the blots is replaced with the above mixture and incubation is carried out for 35 minutes at 37° C. A Polaroid image of the blots is obtained by illuminating with reflected UV light at 254 nm. Exposure time is 5-10 sec with an aperture setting of F=4.5 and filter #15 is used to block unwanted light. Both Compound 47 and FDP can detect ~50 ng of the enzyme prior to washing the membranes. The blots are washed twice for 5 minutes each time with 2 mL of wash buffer and an image is obtained using the same settings and exposure times as described above.

CRE BAG 2 cells [4] = assay: Peptidase substrates in live cells, fluorescence microscopy (Example 59); assay type: cell-based; settings: 1 μM, 0.5 μM or 0.1 μM, 37° C., 30 minutes
Description: CRE BAG 2 cells obtained from American Type Culture Collection Co., Rockville, Md. are used. They are grown in a humidified atmosphere of 5% CO2 in D-MEM supplemented with 10% calf serum, 50 μg/mL gentamycin, 300 μg/mL L-glutamine and 10 mM HEPES, pH 7.4. 1 mM stock solutions of Compound 13-Leu (Example 13) and Compound 13-Arg substrate are prepared in DMSO. CRE BAG 2 cells are trypsinized, washed with phosphate-buffered saline, pH 7.2 and resuspended in 1 mL of the same buffer. 1 μL, 0.5 μL or 0.1 μL of the stock reagents is added to 1 mL of the cell suspension to obtain a final concentration of 1 μM, 0.5 μM or 0.1 μM. Incubation is carried out at 37° C. for 30 minutes. Cells are centrifuged to form a pellet, the supernatant is discarded and the cells are washed with PBS, pH 7.2 and suspended in the same buffer. Cells are mounted on slides and observed by fluorescence microscopy using filters optimized for fluorescein.

NIH-3T3 cells = assay: Hydrolysis of esterase substrates and product retention in live cells, flow cytometry (Example 65); assay type: cell-based
Description: NIH-3T3 cells obtained from American Type Culture Collection Co., Rockville, Md. are used. They are grown in a humidified atmosphere of 5% CO2 in D-MEM supplemented with 10% bovine calf serum (BCS), 50 μg/mL gentamycin, 300 μg/mL L-glutamine and 10 mM HEPES, pH 7.4. Stock solutions of Compound 4 (Example 3), 10 mM in DMSO, and Compound 48 (Example 50), 5 mM in DMSO, are prepared. NIH-3T3 cells are trypsinized, washed with phosphate-buffered saline (PBS), pH 7.2 and resuspended in D-MEM with 10% BCS. To 1 mL of the cell suspension is added the dye stock solution to obtain a final dye concentration of 0.1 mM. Incubation is carried out at 37° C. for 30 minutes followed by incubation on ice for 30 minutes. Cells are centrifuged to form a pellet, the supernatant is discarded and the cells are washed twice with PBS, pH 7.2 and suspended in the same buffer. Cells are analyzed by flow cytometry using the Becton-Dickinson FACS Vantage flow cytometer. After analysis on the flow cytometer, cells are placed at 37° C. and analyzed by flow cytometry at frequent intervals over a period of 75 minutes. Cells stained with either of the dyes are at least 20-fold brighter than the autofluorescent control cells. Approximately 45% of Compound 4 and 35% of Compound 48 are still retained by the cells after 75 minutes of incubation at 37° C.

[5] = tested on: glutathione transferase (GST); assay: Reactivity with glutathione catalyzed by glutathione transferase, TLC (Example 50); assay type: biochemical
Description: The suitability of Compound 1 (Example 1) and 5-(pentachlorobenzoylamino)fluorescein (Compound 48) as substrates for glutathione transferase (GST) in the presence of excess glutathione (GSH) is tested in vitro as follows: 5 mM GSH, 0.5 mM substrate (Compound 1 or Compound 48) and 20 micrograms GST (Sigma #G-6511, 70 units/mg) are combined in 0.1M phosphate buffer, pH 8.0, for 1 hour at 37° C. The reaction is terminated by spotting approximately 3 μL on silica gel TLC plates. The plate is developed using 1-butanol: methanol: water (3:1:1). […] Analysis of the reaction mixture by HPLC as in Example 52 confirms that the reaction product of Compound 1 with GSH is identical to the authentic Compound 1-GSH adduct as prepared in Example 45 (Compound 45).

[6] = 15 min, 5 μM substrate, continuous
[7] = 1 hr, washed, then additional 3 hr at 37° C.
[8] = 4 hrs, 5 μM substrate, continuous

In the case of O=c1cc(CCl)c2ccc(O[C@@H]3O[C@H](CO)[C@H](O)[C@H](O)[C@H]3O)cc2o1 [CMCG, 4-chloromethylcoumarin β-D-galactopyranoside, reference compound], the “fluorescence relative to autofluorescent control cells” value (CRE BAG 2 cells [1]) is reported as 8 fold.
In the case of CC(=O)Oc1ccc2c(c1)Oc1cc(OC(C)=O)ccc1C21OC(=O)c2cc(NC(=O)c3ccccc3)ccc21 [Compound 5, 5-(benzoylamino)fluorescein diacetate], the “fluorescence after fixation and permeabilization” value [2] is reported as “essentially nonfluorescent”, the “GSH adduct formation in cells” value ([3]; 5 μM substrate, 37° C., HPLC) is reported as “does not” and the “EXTRACELLULAR Free dye” value [3, 6] is reported as 4829 relative fluorescence units. The “EXTRACELLULAR Free dye, fraction of total fluorescence” value (from here on “EXTRACELLULAR Free dye, fraction”) [3, 6] was 91.5%, the “INTRACELLULAR Free dye” value [3, 6] was 450 relative fluorescence units and the “INTRACELLULAR Free dye, fraction of total fluorescence” value [3, 6] was 8.5%. For the same compound, the “EXTRACELLULAR Free dye” value [3, 7] was 469 relative fluorescence units, the “EXTRACELLULAR Free dye, fraction” value [3, 7] was 100% and the “EXTRACELLULAR Free dye” value [3, 8] was 8627 relative fluorescence units. The “EXTRACELLULAR Free dye, fraction” value [3, 8] was 99.1%, the “INTRACELLULAR Free dye” value [3, 8] was 78 relative fluorescence units and the “INTRACELLULAR Free dye, fraction of total fluorescence” value [3, 8] was 0.9%. For the same compound, the “hydrolysis product detectable in washed cells” value ([3]; washed at one hour then incubated additional 3 hours) was “not detectable”.
For O=C1OC2(c3ccc(OP(=O)(O)O)cc3Oc3cc(OP(=O)(O)O)ccc32)c2ccccc21 [FDP, fluorescein diphosphate, reference compound], the “amount of enzyme detected, before washing” value (alkaline phosphatase; 35 minutes, 37° C., prior to washing the membranes) was ~ 50 ng and the “detection of enzyme after washing” value (alkaline phosphatase; washed twice for 5 minutes) was “unable to detect the presence of any enzyme”.
In the case of CC(C)C[C@H](N)C(=O)Nc1ccc2c(c1)Oc1cc(NC(=O)c3c(F)c(F)c(F)c(F)c3F)ccc1C21OC(=O)c2ccccc21 (stereo partly drawn) [Compound 13-Leu, Rhodamine 110, pentafluorobenzoyl amide, L-leucine amide, hydrochloride], the “staining of cells, fluorescence microscopy” value (CRE BAG 2 cells [4]) is reported as “punctate green fluorescence associated with organelles”.
With O=C1OC2(c3ccc(O)cc3Oc3cc(O)ccc32)c2ccc(NC(=O)c3c(Cl)c(Cl)c(Cl)c(Cl)c3Cl)cc21 [Compound 48, 5-(pentachlorobenzoylamino)fluorescein] the “brightness versus autofluorescent control cells” value (NIH-3T3 cells; 0.1 mM dye, 37° C., 30 minutes then on ice 30 minutes) was “at least 20 fold”, the “dye retained by the cells” value (NIH-3T3 cells; after 75 minutes of incubation at 37° C.) was roughly 35% and the “adduct formation with glutathione in presence of GST” value ([5]; 5 mM GSH, 0.5 mM substrate, 20 micrograms GST, pH 8.0, 1 hour, 37° C.) was “does not form a new adduct”. For the same compound, the “reaction in control without GST” value ([5]; GST omitted) was “very low or no reaction”.
